Source: US12534454B2, “Crystal forms of 5-fluoro-1-(4-fluoro-3-(4-(pyrimidin-2-yl)piperazine-1-carbonyl)benzyl)quinazoline-2,4(1H,3H)-dione and preparation thereof” (IMPACT THERAPEUTICS (SHANGHAI), INC, priority 2020, dated 2026)
Entries after “also recorded” stand apart in the source; their conditions may differ.

Legend:
Assay type in all cases: physicochemical
[1] = Dynamic Vapor Sorption (DVS) hygroscopicity; conditions: for hygroscopicity classification: DVS; for hygroscopicity classification / mass increase (DVS): 25° C.; for change of crystal form after the DVS testing: after DVS cycle 0%-90%-0% RH; for mass increase (DVS): relative humidity from 0% to 80%
Description: About 10 mg of sample was transferred to a DVS sample pan and the weight change as the humidity of the environment at 25° C. changes was recorded. The parameters of […] were set as follows: • Equilibrium dm/dt: 0.01%/min: (minimum: 10 min; maximum: 180 min); • Drying: 0% RH, 120 min; • RH (%) gradients: 10%; • RH (%) cycle: 0%-90%-0%. • Definition on Hygroscopicity

[2] = Physical stability study of crystal forms (XRPD); conditions: 25° C./60% RH and 40° C./75% RH (long-term and accelerated), 2 weeks
Description: About 10 mg of Crystal Forms II, V and VI were added into 1.5 mL vial respectively which were then placed at the conditions of 25° C./60% RH and 40° C./75% RH. The solid in the vials was examined by XRPD at the corresponding time points.

[3] = Water activity study (competition of crystal forms)
Description: Crystal Form VIII was dissolved in solvents with different water activity shown in the table below and then filtered by a needle filter to prepare a saturated solution. After the filtrate was transferred into a 1.5 mL vial, 2 mg of Crystal Form I, II, VIII, X and XI were added respectively and the resulting suspensions were shaken for a while at the target temperatures. After centrifugation, the solid obtained was air dried at ambient temperature (DMSO system was washed by MTBE) and then examined by XRPD to identify changes among different crystal forms.

[4] = Thermodynamic stability / solvent competition among crystal forms; conditions: for thermodynamic status among anhydrate crystal forms: temperature below 50° C.
Description: After filtration by a needle filter, the filtrate was transferred to 1.5 mL vial. To the vial was added 5 mg of Crystal Form V and VI and the resulting suspensions were shaken for a while at the target temperatures. After centrifugation, the obtained solid was dried at 40° C. by vacuum overnight and then examined by XRPD to identify changes among different crystal forms.
With different solvents at corresponding temperatures shown in the table below, Crystal Form VIII was dissolved until saturated respectively. After filtration by a needle filter, the filtrate was transferred to 1.5 mL vial. To the vial was added 5 mg of Crystal Form III, V and IX and the resulting suspensions were shaken for a while at the target temperatures. After centrifugation, the obtained solid was dried at 40° C. by vacuum overnight and then examined by XRPD to identify changes among different crystal forms.

[5] = Long-term stability study of crystal form VIII; conditions: for Water content / XRPD (crystal form): 25 ± 2° C./60 ± 5% RH
Description: A long-term stability study has been carried out under condition of 25° C./60% RH for the crystal form VIII.

[6] = Relative humidity X-ray powder diffraction (RH-XRPD) of Crystal Form VIII
Description: Based on the above data, Crystal Form VIII was most likely to be a hydrate. […] Therefore, Crystal Form VIII was further characterized by RH-XRPD to confirm the hydrate crystal Form and to have the knowledge of the crystal Form transformation with the different RH.
The parameters of XRPD used in the test were as follows: • Tube: Cu/K-Alpha (λ=1.54179Å); • Generator: Voltage: 40 KV; Current: 40 mA; • Scan Scope: 3-40 deg; • Scan Speed: 10 deg/min.
About 100 mg of compound was evenly distributed to form a layer in a sample holder and transferred to a RH control component in which the relative humidity was controlled and adjusted by the ratio of dry/wet N2 blown.

With O=C(c1cc(Cn2c(=O)[nH]c(=O)c3c(F)cccc32)ccc1F)N1CCN(c2ncccn2)CC1 [Crystal Form II, 5-fluoro-1-(4-fluoro-3-(4-(pyrimidin-2-yl)piperazine-1-carbonyl)benzyl)quinazoline-2,4(1H,3H)-dione] the hygroscopicity classification [1] was “hygroscopic”, the “crystal form change within two weeks” value [2] was “no crystal form change; also recorded: not changed” and the “crystal form change in a low water activity” value ([3]; Aw<0.3) was “changed to Crystal Form V”.
In the case of O=C(c1cc(Cn2c(=O)[nH]c(=O)c3c(F)cccc32)ccc1F)N1CCN(c2ncccn2)CC1 [Crystal Form III, 5-fluoro-1-(4-fluoro-3-(4-(pyrimidin-2-yl)piperazine-1-carbonyl)benzyl)quinazoline-2,4(1H,3H)-dione], the “thermodynamic status among anhydrate crystal forms” value ([4]; anhydrous solvents) is reported as “metastable”.
For O=C(c1cc(Cn2c(=O)[nH]c(=O)c3c(F)cccc32)ccc1F)N1CCN(c2ncccn2)CC1 [Crystal Form IX, 5-fluoro-1-(4-fluoro-3-(4-(pyrimidin-2-yl)piperazine-1-carbonyl)benzyl)quinazoline-2,4(1H,3H)-dione], the “thermodynamic status among anhydrate crystal forms” value ([4]; anhydrous solvents) was “metastable”.
For O=C(c1cc(Cn2c(=O)[nH]c(=O)c3c(F)cccc32)ccc1F)N1CCN(c2ncccn2)CC1 [Crystal Form V, 5-fluoro-1-(4-fluoro-3-(4-(pyrimidin-2-yl)piperazine-1-carbonyl)benzyl)quinazoline-2,4(1H,3H)-dione], the hygroscopicity classification [1] was “slight hygroscopic”, the “change of crystal form after the DVS testing” value [1] was “no significant change” and the “mass increase (DVS)” value [1] was “about 0.8%”. For the same compound, the “crystal form change within two weeks” value [2] was “no crystal form change; also recorded: not changed”, the “relative stability in the anhydrous solvents” value ([4]; anhydrous solvents, 25° C., 50° C. and 80° C.) was “more stable than Crystal Form VI” and the “thermodynamic status among anhydrate crystal forms” value ([4]; anhydrous solvents) was “dominant”. For the same compound, the “crystal form change in the hydrous solvents” value [4] was “changed to Crystal Form II” and the “crystal form change in a high water activity” value ([3]; Aw>0.3) was “changed to Crystal Form II”.
With O=C(c1cc(Cn2c(=O)[nH]c(=O)c3c(F)cccc32)ccc1F)N1CCN(c2ncccn2)CC1 [Crystal Form VI, 5-fluoro-1-(4-fluoro-3-(4-(pyrimidin-2-yl)piperazine-1-carbonyl)benzyl)quinazoline-2,4(1H,3H)-dione] the hygroscopicity classification [1] was “slight hygroscopic”, the “change of crystal form after the DVS testing” value [1] was “no significant change” and the “mass increase (DVS)” value [1] was “about 0.5%”. For the same compound, the “crystal form change within two weeks” value [2] was “not changed”, the “thermodynamic status among anhydrate crystal forms” value ([4]; anhydrous solvents) was “metastable” and the “crystal form change in the hydrous solvents” value [4] was “changed to Crystal Form II”.
For O.O.O=C(c1cc(Cn2c(=O)[nH]c(=O)c3c(F)cccc32)ccc1F)N1CCN(c2ncccn2)CC1 [Crystal Form VIII, 5-fluoro-1-(4-fluoro-3-(4-(pyrimidin-2-yl)piperazine-1-carbonyl)benzyl)quinazoline-2,4(1H,3H)-dione dihydrate], the “hygroscopicity (in words)” value [1] was “high hygroscopicity”, the “change of water content in long-term stability” value ([5]; 25° C./60% RH, up to 24 months) was “no significant change” and the “crystal form change in long-term stability” value ([5]; 25° C./60% RH, up to 24 months) was “no crystal form change”. The “long-term stability (in words)” value ([5]; 25° C./60% RH, up to 24 months) was “stable”, the Water content ([5]; 9 months) was 7.8% and the Water content ([5]; 12 months) was 7.7%. The “XRPD (crystal form)” value ([5]; 12 months) was “Form VIII”, the Water content ([5]; 18 months) was 7.6% and the Water content ([5]; 24 months) was 7.4%. The “XRPD (crystal form)” value ([5]; 24 months) was “Form VIII”, the Water content ([5]; Initial) was 7.7% and the “XRPD (crystal form)” value ([5]; Initial) was “Form VIII”. For the same compound, the “Crystal Form (RH-XRPD), absorption process” value ([6]; 0% RH, equilibrium 2 hour) was “XII”, the “Crystal Form (RH-XRPD), desorption process” value ([6]; 0% RH, equilibrium 2 hour) was “XII” and the “Crystal Form (RH-XRPD), absorption process” value ([6]; 10% RH, equilibrium 2 hour) was “XII”. For the same compound, the “Crystal Form (RH-XRPD), desorption process” value ([6]; 10% RH, equilibrium 2 hour) was “XII”, the “Crystal Form (RH-XRPD), absorption process” value ([6]; 20% RH, equilibrium 2 hour) was “XII” and the “Crystal Form (RH-XRPD), desorption process” value ([6]; 20% RH, equilibrium 2 hour) was “XII”. For the same compound, the “Crystal Form (RH-XRPD), absorption process” value ([6]; 30% RH, equilibrium 2 hour) was ““VIII””, the “Crystal Form (RH-XRPD), desorption process” value ([6]; 30% RH, equilibrium 2 hour) was “VIII” and the “Crystal Form (RH-XRPD), absorption process” value ([6]; 40% RH, equilibrium 2 hour) was “VIII”. For the same compound, the “Crystal Form (RH-XRPD), desorption process” value ([6]; 40% RH, equilibrium 2 hour) was “VIII”, the “Crystal Form (RH-XRPD), absorption process” value ([6]; 50% RH, equilibrium 2 hour) was “VIII” and the “Crystal Form (RH-XRPD), desorption process” value ([6]; 50% RH, equilibrium 2 hour) was “VIII”. For the same compound, the “Crystal Form (RH-XRPD), absorption process” value ([6]; 60% RH, equilibrium 0.5 hour) was “VIII”, the “Crystal Form (RH-XRPD), desorption process” value ([6]; 60% RH, equilibrium 0.5 hour) was “VIII” and the “Crystal Form (RH-XRPD), absorption process” value ([6]; 70% RH, equilibrium 0.5 hour) was “VIII”. The “Crystal Form (RH-XRPD), desorption process” value ([6]; 70% RH, equilibrium 0.5 hour) was “VIII”, the “Crystal Form (RH-XRPD), absorption process” value ([6]; 80% RH, equilibrium 0.5 hour) was “VIII” and the “Crystal Form (RH-XRPD), desorption process” value ([6]; 80% RH, equilibrium 0.5 hour) was “VIII”. The “Crystal Form (RH-XRPD), absorption process” value ([6]; 90% RH, equilibrium 0.5 hour) was “VIII”, the “Crystal Form (RH-XRPD), desorption process” value ([6]; 90% RH, equilibrium 0.5 hour) was “VIII” and the “relative humidity at which the crystal form is stable” value ([6]; RH-XRPD and DVS, below it water is lost and the crystal form changes) was “no less than 40 % RH”.
With O=C(c1cc(Cn2c(=O)[nH]c(=O)c3c(F)cccc32)ccc1F)N1CCN(c2ncccn2)CC1 [Crystal Form “VIII”, 5-fluoro-1-(4-fluoro-3-(4-(pyrimidin-2-yl)piperazine-1-carbonyl)benzyl)quinazoline-2,4(1H,3H)-dione] the “crystal form after moisture absorption” value ([6]; 5° C./75% RH, ambient temperature/75% RH, or 40° C./75% RH) was “return to Crystal Form VIII”.
